Like-named read-outs stand apart in the source and are kept apart here.
How the values were obtained:
[1] = tested on: human fibroblasts (사람 섬유아세포); assay: MTT cytotoxicity, human fibroblasts; format: cell-based; settings: 10 ug/ml
[2] = tested on: human umbilical vein endothelial cells (제대정맥혈관내피세포); assay: MTT cytotoxicity, umbilical vein endothelial cells; format: cell-based; settings: 10 ug/ml
[3] = tested on: human fibroblasts (사람 섬유아세포); assay: Adriamycin-induced senescence, SA-β-gal activity staining, human fibroblasts; format: cell-based
[4] = tested on: human umbilical vein endothelial cells (제대정맥혈관내피세포); assay: Adriamycin-induced senescence, SA-β-gal activity staining, umbilical vein endothelial cells; format: cell-based; settings: 500 nM adriamycin 4 h, then 10 ug/ml, 3 days
[5] = tested on: reactive oxygen species in human fibroblasts (활성산소, 사람 섬유아세포); assay: Intracellular reactive oxygen species by DCF flow cytometry, adriamycin-treated human fibroblasts; format: cell-based; settings: 500 nM adriamycin 4 h, 3 days, DCF fluorescence
[6] = tested on: human fibroblasts with replicative senescence (복제노화가 유도된 사람 섬유아세포); assay: Replicative senescence, SA-β-gal activity staining, old human fibroblasts; format: cell-based; settings: increasing concentrations
[7] = tested on: cellular senescence (세포노화); settings: cited from earlier work
[8] = tested on: Caenorhabditis elegans (꼬마선충); settings: C. elegans, literature; cited from earlier work
[9] = tested on: mouse model (생쥐모델); settings: literature; cited from earlier work

Compound: CC1(C)CC(O)CC2(C)OC(=O)C=C12 (single isomer, unassigned; (-)) [로리오라이드[(-)-loliolide], (-)-loliolide]
- cytotoxicity (MTT) [1]: 세포독성이 관찰되지 않았다
- cytotoxicity (MTT) [2]: 세포독성이 관찰되지 않았다
- SA-β-gal activity staining increased by adriamycin ([3]; 500 nM adriamycin 4 h, then 10 ug/ml, 3 days): 감소되었으나
- concentration dependence of inhibition of adriamycin-increased SA-β-gal activity ([3]; increasing concentrations): 농도를 증가시킬수록 감소함
- SA-β-gal activity staining increased by adriamycin [4]: 변화가 없었다
- reactive oxygen species increased by adriamycin [5]: 활성산소도 감소시킴
- SA-β-gal activity increased in old cells (replicative senescence) [6]: 농도 의존적으로 늙은 세포에서 증가된 SA-β-gal 활성을 감소시킴

Compound: O=C1O[C@H]([C@@H](O)CO)C(O)=C1O [비타민 C]
- inhibition of cellular senescence ([7]; literature): 세포노화를 억제한다

Compound: CC(=O)N[C@@H](CS)C(=O)O [N-아세틸시스테인(N-acetylcysteine), N-acetylcysteine]
- inhibition of cellular senescence ([7]; literature; NAC)): 세포노화 억제 효능이 있는 것으로 보고된
- inhibition of cellular senescence ([7]; literature): 세포노화를 억제한다

Compound: epifriedelanol [에피프리에델라놀(epifriedelanol)]
- inhibition of cellular senescence ([7]; literature): 세포노화를 억제한다

Compound: Nc1ccc(S(=O)(=O)c2ccc(N)cc2)cc1 [4,4'-diaminodiphenylsulfone]
- healthspan [8]: 건강수명을 늘리는
- occurrence of ageing-related diseases [8]: 노화관련 질환의 발생을 억제하며

Compound: CO[C@H]1C[C@@H]2CC[C@@H](C)[C@@](O)(O2)C(=O)C(=O)N2CCCC[C@H]2C(=O)O[C@H]([C@H](C)C[C@@H]2CC[C@@H](O)[C@H](OC)C2)CC(=O)[C@H](C)/C=C(\C)[C@@H](O)[C@@H](OC)C(=O)[C@H](C)C[C@H](C)/C=C/C=C/C=C/1C [라파마이신(rapamycin), rapamycin]
- inhibition of cellular senescence ([7]; literature): 세포노화 억제 효능이 있는 것으로 보고된
- healthspan [9]: 건강수명을 늘리는
- occurrence of ageing-related diseases [9]: 노화관련 질환의 발생을 억제하며

Compound: CS(=O)(=O)Nc1ccc([N+](=O)[O-])cc1OC1CCCCC1 [NS398]
- inhibition of cellular senescence ([7]; literature): 세포노화를 억제한다

From KR20140032201A, “로리오라이드를 유효성분으로 함유하는 세포 노화 억제용 조성물” (영남대학교 산학협력단, priority 2012, dated 2014)
